From ChEMBL document CHEMBL6115007, “Synthesis and in vitro and in vivo evaluation of novel bivalent quinolines as antitumor agents via targeting autophagy in cervical cancer” (Eur J Med Chem, 2025)
The source made the active and inactive calls. The calls are words filed in the database; no cut-off is given here.

Legend:
Ca-Ski [1] = assay: Induction of autophagy in human Ca Ski cells assessed as increase in LC3-I conversion to LC3-II at 0.25 to 1 microM incubated for 24 hrs by Western blot analysis; format: functional, cell-based; conditions: dose 0.25-1 µM
Ca-Ski [2] = assay: Effect on cleaved caspase 3 expression level in Bax deficient human Ca Ski cells at 0.5 to 1 uM incubated for 24 hrs by Western blot analysis; format: functional, cell-based; conditions: dose 0.5-1 µM
HeLa [3] = assay: Induction of autophagy in human HeLa cells transfected with mRFP-GFP-LC3 plasmid assessed as decrease in GFP fluorescence at 0.4 to 0.8 uM incubated for 24 hrs by DAPI staining based fluorescence confocal microscopic analysis; format: functional, cell-based; conditions: dose 0.4-0.8 µM
HeLa [4] = assay: Induction of apoptosis in human HeLa cells assessed as early apoptotic cells at 1.2 uM incubated for 24 hrs by Annexin V-FITC/PI staining based flow cytometric analysis (reference value: 0.97 %); format: functional
[5] = Toxicity in female BALB/c mouse xenografted with human HeLa cells assessed as effect on AST level at 4 to 8 mg/kg administered every four days and measured after 26 days; format: organism-based; conditions: in vivo, 624 h, dose 4-8 mg/kg, time 26 day
Ca-Ski [6] = assay: Effect on cleaved caspase 3 expression level in p53 deficient human Ca Ski cells at 0.5 to 1 uM incubated for 24 hrs by Western blot analysis; format: functional, cell-based; conditions: dose 0.5-1 µM
A549 = assay: Antiproliferative activity against human A549 cells assessed as reduction in cell optical density incubated for 48 hrs by MTT assay; format: functional, cell-based; conditions: A549, 48 h
HeLa [7] = assay: Effect on Beclin1 protein level in human HeLa cells at 0.6 to 1.2 uM incubated for 24 hrs by Western blot analysis; format: functional, cell-based; conditions: dose 0.6-1.2 µM
Ca-Ski [8] = assay: Induction of autophagy in human Ca Ski cells transfected with mRFP-GFP-LC3 plasmid assessed as appearance of RFP puncta clusters as aggregates in cytoplasm at 0.3 to 0.6 uM incubated for 24 hrs by DAPI staining based fluorescence confocal microscopic analysis; format: functional, cell-based; conditions: dose 0.3-0.6 µM
HeLa [9] = assay: Induction of morphological changes in human HeLa cells assessed as increase in appearance of round cells at 0.6 to 2.4 uM by microphotographic analysis; format: functional, cell-based; conditions: dose 0.6-2.4 µM
C-33-A [10] = assay: Antiproliferative activity against human C-33-A cells assessed as inhibition of cell growth at 0.3 to 1.2 uM by CCK8 assay; format: functional, cell-based; conditions: dose 0.3-1.2 µM, time 6.0 day
Ca-Ski [11] = assay: Inhibition of colony formation in human Ca Ski cells assessed as reduction in colony forming unit count at 0.1 to 0.4 uM incubated for 24 hrs by crystal violet staining based analysis; format: functional, cell-based; conditions: dose 0.1-0.4 µM
HeLa [12] = assay: Antiproliferative activity against human HeLa cells assessed as reduction in cell optical density incubated for 48 hrs by MTT assay; format: functional, cell-based
HeLa [13] = assay: Effect on cleaved caspase 3 expression level in Bax deficient human HeLa cells at 0.6 to 1.2 uM incubated for 24 hrs by Western blot analysis; format: functional, cell-based; conditions: dose 0.6-1.2 µM
HeLa [14] = assay: Induction of apoptosis in human HeLa cells assessed as necrotic cells at 1.2 uM incubated for 24 hrs by Annexin V-FITC/PI staining based flow cytometric analysis (reference value: 1.88 %); format: functional
HeLa [15] = assay: Antitumor activity against human HeLa cells xenografted in female BALB/c mouse assessed as reduction in tumor growth at 4 to 8 mg/kg administered every four days and measured after 26 days; format: functional, organism-based; conditions: dose 4-8 mg/kg, time 26.0 day
HeLa [16] = assay: Induction of autophagy in human HeLa cells assessed as increase in ATG5 protein level at 0.6 to 1.2 uM incubated for 24 hrs by Western blot analysis; format: functional, cell-based; conditions: dose 0.6-1.2 µM
Ca-Ski [17] = assay: Antiproliferative activity against ATG5 deficient human Ca Ski cells assessed as inhibition of cell viability incubated for 24 hrs by CCK8 assay; format: functional, cell-based
Ca-Ski [18] = assay: Induction of apoptosis in human Ca Ski cells assessed as viable cells at 1 uM incubated for 24 hrs by Annexin V-FITC/PI staining based flow cytometric analysis (reference value: 86.8 %); format: functional; conditions: read-out: Activity
HeLa [19] = assay: Effect on cleaved caspase 3 expression level in human HeLa cells at 0.3 to 1.2 uM incubated for 24 hrs by Western blot analysis; format: functional, cell-based; conditions: dose 0.3-1.2 µM
Ca-Ski [20] = assay: Inhibition of cell migration in human Ca Ski cells at 0.5 to 1.0 uM measured after 48 hrs by cell scratch assay; format: functional, cell-based; conditions: dose 0.5-1 µM
C-33-A [21] = assay: Induction of morphological changes in human C-33-A cells assessed as increase in appearance of round cells at 0.3 to 1.2 uM by microphotographic analysis; format: functional, cell-based; conditions: dose 0.3-1.2 µM
C-33-A [22] = assay: Inhibition of colony formation in human C-33-A cells assessed as reduction in colony forming unit count at 0.05 to 0.2 uM incubated for 24 hrs by crystal violet staining based analysis; format: functional, cell-based; conditions: dose 0.05-0.2 µM
HeLa [23] = assay: Induction of autophagy in human HeLa cells transfected with mRFP-GFP-LC3 plasmid assessed as decrease in GFP fluorescence at 30 uM incubated for 24 hrs by DAPI staining based fluorescence confocal microscopic analysis; format: functional, cell-based
HeLa [24] = assay: Antitumor activity against human HeLa cells xenografted in female BALB/c mouse assessed as reduction in Ki67 expression in tumor at 4 to 8 mg/kg administered every four days and measured after 26 days by immunohistochemical analysis; format: functional, organism-based; conditions: dose 4-8 mg/kg, time 26.0 day
HeLa [25] = assay: Induction of apoptosis in human HeLa cells assessed as early apoptotic cells at 0.6 uM incubated for 24 hrs by Annexin V-FITC/PI staining based flow cytometric analysis (reference value: 0.97 %); format: functional
Ca-Ski [26] = assay: Effect on cleaved PARP expression level in p53 deficient human Ca Ski cells at 0.5 to 1 uM incubated for 24 hrs by Western blot analysis; format: functional, cell-based; conditions: dose 0.5-1 µM
Ca-Ski [27] = assay: Antiproliferative activity against p53 deficient human Ca Ski cells assessed as inhibition of cell viability incubated for 24 hrs by CCK8 assay; format: functional, cell-based
SiHa = assay: Induction of morphological changes in human SiHa cells assessed as increase in appearance of round cells at 0.5 to 2 uM by microphotographic analysis; format: functional, cell-based; conditions: dose 0.5-2 µM
HeLa [28] = assay: Antiproliferative activity against p53 deficient human HeLa cells assessed as inhibition of cell viability incubated for 24 hrs by CCK8 assay; format: functional, cell-based
HeLa [29] = assay: Antiproliferative activity against ATG7 deficient human HeLa cells assessed as inhibition of cell viability incubated for 24 hrs by CCK8 assay; format: functional, cell-based
[30] = Toxicity in female BALB/c mouse xenografted with human HeLa cells assessed as effect on WBC level at 4 to 8 mg/kg administered every four days and measured after 26 days; format: organism-based; conditions: in vivo, 624 h, dose 4-8 mg/kg, time 26 day
HeLa [31] = assay: Induction of apoptosis in human HeLa cells assessed as early apoptotic cells at 0.6 uM preincubated with Z-VAD-FMK for 1 hrs followed by compound addition and measured after 24 hrs by Annexin V-FITC/PI staining based flow cytometric analysis (reference value: 0.96 %); format: functional
MCF7 = assay: Antiproliferative activity against human MCF7 cells assessed as reduction in cell optical density incubated for 48 hrs by MTT assay; format: functional, cell-based; conditions: MCF7, 48 h
HeLa [32] = assay: Effect on PARP expression level in Bax deficient human HeLa cells at 0.6 to 1.2 uM incubated for 24 hrs by Western blot analysis; format: functional, cell-based; conditions: dose 0.6-1.2 µM

COc1cccc(Nc2ccnc3cc(OCCCCCOc4ccc5c(Nc6cccc(OC)c6)ccnc5c4)ccc23)c1
Activity (Ca-Ski [1]): Active
Activity (Ca-Ski [2]): inactive
Activity (HeLa [3]): Active
Activity (HeLa [4]): 1.25%
Activity [5]: Non-toxic
Activity (Ca-Ski [6]): inactive
IC50 (A549): 2750 nM
Activity (HeLa [7]): inactive
Activity (Ca-Ski [8]): Active
Activity (HeLa [9]): Active
Activity (C-33-A [10]): Time-dependent-effect
inhibition (Ca-Ski [11]): Active
IC50 (HeLa [12]): 3.71 µM
Activity (HeLa [13]): inactive
Activity (HeLa [14]): 1.47%
Activity (HeLa [15]): Active
Activity (HeLa [16]): Active
IC50 (Ca-Ski [17]): 1580 nM
viability at 1 µM (Ca-Ski [18]): 82%
Activity (HeLa [19]): inactive
inhibition (Ca-Ski [20]): Active
Activity (C-33-A [21]): Active
inhibition (C-33-A [22]): Active
Activity (HeLa [23]): Active
Activity (HeLa [24]): Active
Activity (HeLa [25]): 0.8%
Activity (Ca-Ski [26]): inactive
IC50 (Ca-Ski [27]): 872 nM
Activity (SiHa): Active
IC50 (HeLa [28]): 1110 nM
IC50 (HeLa [29]): 2310 nM
Activity [30]: Non-toxic
Activity (HeLa [31]): 1.31%
IC50 (MCF7): 3.08 µM
Activity (HeLa [32]): inactive
